Literature values in patent US5505931A, “Acid cleavable compounds, their preparation and use as bifunctional acid-labile crosslinking agents” (The Dow Chemical Company, priority 1993, dated 1996).

Tested on: tumor
Details: unconjugated controls

## COc1cccc2c1C(=O)c1c(O)c3c(c(O)c1C2=O)C[C@@](O)(C(C)=O)C[C@@H]3O[C@H]1C[C@H](N)[C@H](O)[C@H](C)O1 [daunomycin]
  response in control experiments: inferior response
